Source: PMC11440035, “Interaction of myricetin, ampelopsin (dihydromyricetin), and their sulfate metabolites with serum albumin, cytochrome P450 (CYP2C9, 2C19, and 3A4) enzymes, and organic anion‐transporting polypeptides (OATP1B1 and OATP2B1)” (Pharmacology Research & Perspectives, 2024)
Several values for one entry are separate records, joined by “and”; a condition that tells them apart may be missing. Identical values can stand only once.

Key:
[1] = tested on: T1, human serum albumin (HSA); experiment: Fluorescence quenching of HSA by flavonoids (Stern–Volmer and modified Stern–Volmer); format: binding; conditions: for albumin‐bound fraction: estimated from K, 1:1 stoichiometry, 1 μM flavonoid, 600 μM HSA (≈ 40 g/L)
T1 construct: purchased Merck (Darmstadt, Germany) A1653
Procedure: Fluorescence spectroscopic measurements were performed in phosphate‐buffered saline (PBS, pH 7.4) at room temperature, using a Hitachi F‐4500 spectrofluorometer (Tokyo, Japan). Increasing amounts of flavonoids (final concentrations: 0, 1, 2, 3, 4, 5, and 6 μM) were added to HSA (2 μM), after which fluorescence emission spectra were collected (λ ex = 295 nm). UV–Vis spectra of MYR, M3′S, AMP, and A4′S were also recorded, and their inner‐filter effects were corrected as it has been reported.[37], [38] Flavonoid–HSA interactions were evaluated based on the graphical application of the Stern–Volmer equation[18], [39]: (1) I0/I=1+KSV×Q where K SV is the Stern–Volmer quenching constant, I 0 denotes the emission intensity of HSA alone at 340 nm, I marks the emission signal of albumin at 340 nm in the presence of flavonoids, while [Q] is the molar concentration of the quencher. Thereafter, binding constants (K) of the formed complexes were determined based on the modified Stern–Volmer equation[39], [40]: (2) I0/I0−I=1/fa×K×1/Q+1/fa where f a is the fraction of the accessible fluorophore.
Using the binding/association constants and assuming 1:1 stoichiometry of complex formation, we estimated the bound fractions of M3′S and A4′S in the circulation based on the following equation[41]: (3) K=FH/F×HSA where [F], [HSA], and [FH] are the molar concentrations of the unbound free flavonoid, the unbound free HSA, and the flavonoid–HSA complex, respectively. In these calculations, we hypothesized the presence of 1.0 μM levels of M3′S or A4′S in the presence of 600 μM (≈ 40 g/L) of HSA.

[2] = tested on: T1, human serum albumin (HSA); experiment: Ultrafiltration: displacement of the Site I marker warfarin from HSA; format: binding; conditions: flavonoid 20 μM, warfarin 1 μM, HSA 5 μM, PBS pH 7.4
Procedure: The impacts of MYR, M3′S, AMP, and A4′S on the albumin‐bound fraction of the Site I marker warfarin were examined with the previously reported ultrafiltration method.[17], [18] Briefly, samples contained warfarin (1 μM) and HSA (5 μM) without or with flavonoids (20 μM) in PBS (pH 7.4). After two washing steps of the filters (Amicon Ultra‐0.5 Centrifugal Filter Units, 30 kDa molecular weight cut‐off; Merck, Darmstadt, Germany) with water then PBS (both 500 μL), samples (500 μL) were centrifuged for 10 min (7500 g, 25°C, fixed angle rotor).
Warfarin was quantified using an HPLC system (Jasco, Tokyo, Japan) with an autosampler (AS‐4050), a binary pump (PU‐4180), a fluorescence detector (Jasco FP‐920), and the ChromNAV2 software. The concentrations of warfarin in the filtrate were directly determined by applying the previously described method.[17], [18] […] The fluorescence detection of warfarin was carried out at 310 and 390 nm excitation and emission wavelengths, respectively.

[3] = target: T2, OATP1B1 (Homo sapiens, UniProt Q9Y6L6); experiment: Inhibition of OATP1B1-mediated disulfopyrene uptake in A431 cells; format: cell-based; conditions: for decrease in the transport activity of OATP1B1 / inhibition of OATP1B1 in words: 25 μM flavonoid; for IC50: disulfopyrene 10 μM, 10 min, HBSS pH 7.4, A431-OATP1B1 cells
T2 construct: expressed in transfected cells; host or cells: A431
T2 sequence (Q9Y6L6 1-691): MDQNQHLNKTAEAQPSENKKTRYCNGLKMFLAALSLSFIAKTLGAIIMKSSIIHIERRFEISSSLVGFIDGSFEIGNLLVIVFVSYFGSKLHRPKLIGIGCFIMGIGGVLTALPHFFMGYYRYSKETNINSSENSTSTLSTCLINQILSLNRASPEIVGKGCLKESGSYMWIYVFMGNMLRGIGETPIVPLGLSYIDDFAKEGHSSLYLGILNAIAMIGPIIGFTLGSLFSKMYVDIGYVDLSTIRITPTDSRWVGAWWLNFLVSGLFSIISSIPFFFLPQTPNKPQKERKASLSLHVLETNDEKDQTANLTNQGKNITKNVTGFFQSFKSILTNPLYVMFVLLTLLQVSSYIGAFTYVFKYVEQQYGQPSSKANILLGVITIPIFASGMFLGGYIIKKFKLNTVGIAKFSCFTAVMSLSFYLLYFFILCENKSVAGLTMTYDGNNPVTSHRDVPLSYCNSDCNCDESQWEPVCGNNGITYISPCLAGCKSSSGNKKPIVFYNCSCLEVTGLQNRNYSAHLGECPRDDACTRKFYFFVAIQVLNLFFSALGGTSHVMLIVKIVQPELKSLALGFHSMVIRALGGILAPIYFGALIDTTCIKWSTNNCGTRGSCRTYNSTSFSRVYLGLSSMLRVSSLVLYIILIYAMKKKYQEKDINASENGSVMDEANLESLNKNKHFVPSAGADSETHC
Procedure: Human A431 cells overexpressing OATPs (OATP1B1 or OATP2B1) and their mock‐transfected controls were established earlier.[42], [43] The cells were maintained at 37°C with 5% CO2 in Dulbecco's Modified Eagle Medium (DMEM; Thermo Fischer Scientific, Waltham, MA, USA) supplemented with fetal bovine serum (10%), L‐glutamine (2 mM), penicillin (100 units/mL) and streptomycin (100 μg/mL).
The inhibitory impacts of MYR, AMP, and their sulfate metabolites on OATP1B1 and OATP2B1 were examined using the fluorescent dye substrates disulfopyrene (6,8‐dihydroxy‐1,3‐disulfopyrene) and pyranine, respectively.[42], [43] The day before the transport measurements, A431 cells overexpressing OATP1B1 or OATP2B1 (and their mock‐transfected controls) were seeded onto 96‐well plates at a density of 80 000 cells/well in DMEM (200 μL). Next day, the medium was removed, the cells were washed three times with PBS (pH 7.4, 200 μL) at room temperature, then the cells were pre‐incubated with 50 μL of Hank's Balanced Salt Solution (HBSS, pH 7.4; OATP1B1) or uptake buffer (pH 5.5; OATP2B1) for 5 min at 37°C with or without the flavonoids.[43] The transport reaction was started by adding 50 μL of disulfopyrene‐containing (final concentration: 10 μM) HBSS (OATP1B1 assay), or pyranine‐containing (final concentration: 20 μM) uptake buffer (OATP2B1 assay). After 10 min (OATP1B1) or 15 min (OATP2B1), the transport was stopped by removing the supernatant and washing the cells three times with ice‐cold PBS (200 μL). Then the fluorescence was measured in 200 μL of PBS using an Enspire plate reader (PerkinElmer, Waltham, MA, US) at excitation and emission wavelengths of 460/510 nm. OATP‐dependent transport was determined by subtracting the fluorescence detected in mock control cells from that of OATP‐expressing cells. Transport activity was measured based on the fluorescence signal in the absence of flavonoids (100%). IC50 values were calculated by sigmoidal fitting (Hill1), using the Origin software (version 2018, OriginLab Corporation, Northampton, MA, USA).

O=C1c2c(O)cc(O)cc2OC(c2cc(O)c(OS(=O)(=O)O)c(O)c2)C1O (centres unmarked) [A4′S, ampelopsin‐4′‐O‐sulfate]
albumin‐bound fraction [1]: ~94%
effect on the filtered fraction of warfarin [2]: not affected
decrease in the transport activity of OATP1B1 [3]: ~70%

O=C1c2c(O)cc(O)cc2O[C@H](c2cc(O)c(O)c(O)c2)[C@H]1O [AMP, ampelopsin]
binding constant (K) of flavonoid–HSA complex ([1]; modified Stern–Volmer equation, HSA 2 μM, flavonoid 0–6 μM, PBS pH 7.4, λex 295 nm, λem 340 nm): 5.5 × 10^4 L/mol and ≈ 10^4 L/mol
effect on the filtered fraction of warfarin [2]: not affected
decrease in the transport activity of OATP1B1 [3]: approximately 40%

O=c1c(O)c(-c2cc(O)c(O)c(OS(=O)(=O)O)c2)oc2cc(O)cc(O)c12 [M3′S, myricetin‐3′‐O‐sulfate]
albumin‐bound fraction [1]: exceeds 99%
effect on the filtered fraction of warfarin [2]: moderate increases
inhibition of OATP1B1 in words [3]: close to complete inhibition
IC50 [3]: 1700 nM and 1660 nM
inhibitory strength on OATP1B1 relative to MYR ([3]; ratio of IC50 values): four‐fold stronger

O=c1c(O)c(-c2cc(O)c(O)c(O)c2)oc2cc(O)cc(O)c12 [MYR, myricetin]
effect on the filtered fraction of warfarin [2]: moderate increases
inhibition of OATP1B1 in words [3]: close to complete inhibition
IC50 [3]: 6400 nM
